Measurements published in publication PMC9486086, “Development of a UPLC-MS/MS method for the determination of orelabrutinib in rat plasma and its application in pharmacokinetics” (Frontiers in Pharmacology, 2022).
Like-named read-outs stand apart in the source and are kept apart here.

Columns and labels:
[1] = Pharmacokinetic study in rats after single oral dose (UPLC-MS/MS, non-compartmental analysis); type: in vivo; conditions: male, Sprague-Dawley, rat, plasma, single oral dose of 10 mg/kg, n = 6, mean ± SD
Excerpt: Six male Sprague-Dawley (SD) Rats (weighing 250 ± 20 g) were obtained from the Laboratory Animal Center of The First Affiliated Hospital of Wenzhou Medical University (Zhejiang, China). They were housed in an environmentally controlled rearing chamber and given food and water that met the standard for 1 week. The animal experiment was approved by the Ethics Committee for the Protection and Use of Laboratory Animals of The First Affiliated Hospital of Wenzhou Medical University (Zhejiang, China).
The rats were fasted for 12 h before the start of the experiment and were given free access to water. Oral gavage was administered to rats at a dose of 10 mg/kg of orelabrutinib dissolved in 0.5% sodium carboxymethylcellulose (CMC-Na). Blood was collected at different collection points at 0.333, 0.667, 1, 1.5, 2, 3, 4, 6, 8, 12, 24 and 48 h after administration. After collected, blood in centrifuge tube was centrifuged for 10 min at 13,000 × g at room temperature, and 100 μl of plasma was separated and stored at −80°C prior to analysis. The concentrations of the analyte were determined using this validated UPLC-MS/MS method, while the non-compartmental model was analyzed using DAS 2.0 software (Drug and Statistical Software of the Shanghai Mathematical Pharmacology Professional Committee, China), and pharmacokinetic parameters were calculated.

[2] = Stability of orelabrutinib in rat plasma under storage and analytical conditions; type: in vitro ADME; conditions: for Measured concentration, Mean ± SD / RE (relative error vs nominal): n = 5
Description: To investigate the stability of orelabrutinib in rat plasma, QC plasma samples of three concentrations were placed in different environments to examine the short-term, long-term, three freeze-thaw cycles and stability at 10°C. Short-term stability was determined by placing plasma samples at room temperature for at least 3 h. Long-term stability was determined by testing plasma samples after 21 days of storage at −80°C. The stability of the plasma samples was evaluated by measuring the stability of three freeze-thaw cycles from freezing (−80°C) to thawing (room temperature) three times. In addition, the stability was determined by storing the prepared plasma samples in an autosampler (10°C) for 4 h.

[3] = design: method as in Zhang et al., 2020; conditions: oral, ref Zhang et al., 2020, cited from earlier work
[4] = prepared plasma samples, autosampler 10°C for 4 h, nominal 2 ng/ml
[5] = prepared plasma samples, autosampler 10°C for 4 h, nominal 200 ng/ml
[6] = prepared plasma samples, autosampler 10°C for 4 h, nominal 1600 ng/ml
[7] = rat plasma, 21 days at −80°C, nominal 2 ng/ml
[8] = rat plasma, 21 days at −80°C, nominal 200 ng/ml
[9] = rat plasma, 21 days at −80°C, nominal 1600 ng/ml
[10] = rat plasma, room temperature at least 3 h, nominal 2 ng/ml
[11] = rat plasma, room temperature at least 3 h, nominal 200 ng/ml
[12] = rat plasma, three freeze-thaw cycles (−80°C to room temperature), nominal 2 ng/ml
[13] = rat plasma, three freeze-thaw cycles (−80°C to room temperature), nominal 200 ng/ml
[14] = rat plasma, three freeze-thaw cycles (−80°C to room temperature), nominal 1600 ng/ml

AUC(0-inf) [1]: 3600 ± 1540 ng·h/mL | AUC(0-t) [1]: 3590 ± 1540 ng·h/mL | Cmax [1]: 1930 ± 1030 ng/mL | Tmax [1]: 33.6 ± 10.2 min | half-life [1]: 495 ± 338 min | Measured concentration, Mean ± SD [2, 4]: 2.0 ± 0.1 ng/mL | RE (relative error vs nominal) [2, 4]: −0.2% | Measured concentration, Mean ± SD [2, 5]: 208.0 ± 5.3 ng/mL | RE (relative error vs nominal) [2, 5]: 4.0% | Measured concentration, Mean ± SD [2, 6]: 1649.2 ± 25.3 ng/mL | RE (relative error vs nominal) [2, 6]: 3.1% | Measured concentration, Mean ± SD [2, 7]: 2.1 ± 0.1 ng/mL | RE (relative error vs nominal) [2, 7]: 5.4% | Measured concentration, Mean ± SD [2, 8]: 212.6 ± 7.3 ng/mL | RE (relative error vs nominal) [2, 8]: 6.3% | Measured concentration, Mean ± SD [2, 9]: 1389.2 ± 147.3 ng/mL | RE (relative error vs nominal) [2, 9]: −13.2% | Measured concentration, Mean ± SD [2, 10]: 2.1 ± 0.1 ng/mL | RE (relative error vs nominal) [2, 10]: 6.1% | Measured concentration, Mean ± SD [2, 11]: 199.3 ± 4.8 ng/mL | RE (relative error vs nominal) [2, 11]: −0.4% | Measured concentration, Mean ± SD ([2]; rat plasma, room temperature at least 3 h, nominal 1600 ng/ml): 1603.9 ± 24.6 ng/mL | Measured concentration, Mean ± SD [2, 12]: 2.0 ± 0.1 ng/mL | RE (relative error vs nominal) [2, 12]: 1.0% | Measured concentration, Mean ± SD [2, 13]: 220.3 ± 8.5 ng/mL | RE (relative error vs nominal) [2, 13]: 10.2% | Measured concentration, Mean ± SD [2, 14]: 1773.7 ± 57.6 ng/mL | RE (relative error vs nominal) [2, 14]: 10.9% | Stability in plasma samples (in words) ([2]; rat plasma, room temperature, 10°C, three freeze (−80°C)/thaw (RT) cycles, −80°C for 21 days): stable
SMILES: C=CC(=O)N1CCC(c2ccc(C(N)=O)c(-c3ccc(Oc4ccccc4)cc3)n2)CC1 [Orelabrutinib]
Dose dependence of AUC and Cmax ([3]; 64 healthy subjects, single 20-400 mg or multiple doses for 14 days): increased proportionally | Cmax ([3]; healthy subjects, dose not stated): ~300 ng/mL
